According to patent US20240002229A1, “DEVICE FOR ENHANCING REACTION POTENTIAL OF OXIDIZING AGENTS” (Bis Science LLC, priority 2022, published 2024):

Assays:
Format in all cases: cell-based
[1] = tested on: Staphylococcus epidermidis ATCC 12228; assay: Residual effect test on inoculated agar carrier (Table 4)
Description: The test substance or PEOA was applied to target which consisted of a microbe inoculated agar plate. The application of the PEOA can be by means such as a dropper, fog, mist or spray or any other acceptable means. […] PEOA was applied to inoculated plates at intervals of 1 minute, 5 minutes, 10 minutes, 30 minutes, 1 hour, 12 hours, 24 hours, 2, days, 5 days, and 7 days after radiation exposure. In one test, after 7 days, the PEOA was again subjected to photon emissions from 0.01 nm to 845 nm for the test labeled reactivation. An additional photon and or phonon exposure similar to the initial enhancement by photon and or phonons of 0.01 nm through 845 nm was the reactivation dose of photons.

E. coli = assay: Microbial reduction by stored photon enhanced solution versus un-exposed hydrogen peroxide; settings: samples at 4 weeks post exposure to photons; control not exposed
microbial counts = assay: Independent research lab testing, microbial reduction, 5 minute contact time; settings: 1 part per million, 5 minute contact time with the ambient air
Description: A small micron PEOA antimicrobial dry fog is administered into the ambient air through an existing HVAC system and device at a concentration of less than 1 part per million.

For `OO` [Control, hydrogen peroxide], which CFU/carrier ([1]; Control, time after radiation exposure N/A) is on record?
The CFU/carrier was 6.04E+05 CFU/carrier.

And the CFU/carrier ([1]; applied to carrier 2 Days after radiation exposure)?
The CFU/carrier was 3.00E+05 CFU/carrier.

What about the CFU/carrier ([1]; applied to carrier 5 Days after radiation exposure) of the same compound?
The CFU/carrier was 4.50E+04 CFU/carrier.

What about the CFU/carrier ([1]; applied to carrier 7 Days after radiation exposure) of the same compound?
Its CFU/carrier is 9.80E+04 CFU/carrier.

What about the CFU/carrier ([1]; applied to carrier 12 Hours after radiation exposure) of the same compound?
The CFU/carrier was 9.20E+04 CFU/carrier.

And the CFU/carrier ([1]; applied to carrier 24 Hours after radiation exposure)?
The CFU/carrier was 1.33E+05 CFU/carrier.

Which “microbial (E. coli) reduction” value (E. coli) does the source give for `OO` [hydrogen peroxide] here?
The value was 23.08%.

With `OO` [standard hydrogen peroxide, hydrogen peroxide] as the compound, how does the microbial reduction (microbial counts) read?
The microbial reduction was “little or no microbial reduction”.
